Among the data in ChEMBL document CHEMBL5120927, “LEGO-Lipophosphonoxins: A Novel Approach in Designing Membrane Targeting Antimicrobials” (J Med Chem, 2022) are MIC values, retold here.

In brackets after ≈: the same amount, converted by molar mass.

The subject of assay [1] is Staphylococcus aureus. As to the kind of experiment: Antibacterial activity against wild type Staphylococcus aureus 4904/C assessed as reduction in microbial growth incubated for 24 hrs by microdilution assay. Format: functional. Background: Broth dilution looks for growth in wells or tubes with falling amounts of substance.
For assay [2], the system named is Staphylococcus aureus. Briefly: Antibacterial activity against wild type Staphylococcus aureus 4679/B assessed as reduction in microbial growth incubated for 24 hrs by microdilution assay. Format: functional.
The test system of assay [3] is Staphylococcus aureus. Briefly: Antibacterial activity against wild type Staphylococcus aureus 4557/A assessed as reduction in microbial growth incubated for 24 hrs by microdilution assay. Format: functional.
For assay [4], the system named is Staphylococcus aureus. Briefly: Antibacterial activity against wild type Staphylococcus aureus 78/CF assessed as reduction in microbial growth incubated for 24 hrs by microdilution assay. Format: functional.
Assay [5] has as its system Staphylococcus aureus. As to the kind of experiment: Antibacterial activity against wild type Staphylococcus aureus 4502/A assessed as reduction in microbial growth incubated for 24 hrs by microdilution assay. Format: functional.
Assay [6] has as its system Staphylococcus aureus. Briefly: Antibacterial activity against wild type Staphylococcus aureus 4717/B assessed as reduction in microbial growth incubated for 24 hrs by microdilution assay. Format: functional.
Assay [7] concerns Staphylococcus aureus. Briefly: Antibacterial activity against […] Staphylococcus aureus 4461/A assessed as reduction in microbial growth incubated for 24 hrs by microdilution assay. Format: functional.
Assay [8] concerns Staphylococcus aureus. Briefly: Antibacterial activity against […] Staphylococcus aureus 4460/A assessed as reduction in microbial growth incubated for 24 hrs by microdilution assay. Format: functional.
For assay [9], the system named is Staphylococcus aureus. As to the kind of experiment: Antibacterial activity against wild type Staphylococcus aureus 4504/A assessed as reduction in microbial growth incubated for 24 hrs by microdilution assay. Format: functional.
The test system of assay [10] is Staphylococcus aureus. Briefly: Antibacterial activity against wild type methicillin resistant Staphylococcus aureus 4968/C assessed as reduction in microbial growth incubated for 24 hrs by microdilution assay. Format: functional.
Assay [11] relates to Staphylococcus aureus. Briefly: Antibacterial activity against wild type Staphylococcus aureus 4566/A assessed as reduction in microbial growth incubated for 24 hrs by microdilution assay. Format: functional.
Assay [12] has as its system Staphylococcus aureus. As to the kind of experiment: Antibacterial activity against wild type Staphylococcus aureus 4788/B assessed as reduction in microbial growth incubated for 24 hrs by microdilution assay. Format: functional.
Assay [13] relates to Staphylococcus aureus. As to the kind of experiment: Antibacterial activity against […] Staphylococcus aureus 4463/A assessed as reduction in microbial growth incubated for 24 hrs by microdilution assay. Format: functional.
The test system of assay [14] is Staphylococcus aureus. As to the kind of experiment: Antibacterial activity against wild type Staphylococcus aureus 4883/C assessed as reduction in microbial growth incubated for 24 hrs by microdilution assay. Format: functional.
The subject of assay [15] is Staphylococcus aureus. As to the kind of experiment: microbe, parasite or virus in culture. The following applies: 4862/C, 24 h.
Description: Antibacterial activity against wild type Staphylococcus aureus 4862/C assessed as reduction in microbial growth incubated for 24 hrs by microdilution assay
Assay [16] has as its system Staphylococcus aureus. Briefly: Antibacterial activity against wild type methicillin resistant Staphylococcus aureus 4561/A assessed as reduction in microbial growth incubated for 24 hrs by microdilution assay. Format: functional.
The test system of assay [17] is Staphylococcus aureus. As to the kind of experiment: Antibacterial activity against antibiotic resistant Staphylococcus aureus 4740/B assessed as reduction in microbial growth incubated for 24 hrs by microdilution assay. Format: functional.
Assay [18] has as its system Staphylococcus aureus. Briefly: Antibacterial activity against wild type methicillin resistant Staphylococcus aureus 5017/C assessed as reduction in microbial growth incubated for 24 hrs by microdilution assay. Format: functional.
The test system of assay [19] is Staphylococcus aureus. As to the kind of experiment: Antibacterial activity against wild type Staphylococcus aureus 4482/A assessed as reduction in microbial growth incubated for 24 hrs by microdilution assay. Format: functional.
Assay [20] deals with Staphylococcus aureus. Briefly: Antibacterial activity against wild type Staphylococcus aureus 5079/C assessed as reduction in microbial growth incubated for 24 hrs by microdilution assay. Format: functional.
For assay [21], the system named is Staphylococcus aureus. Briefly: Antibacterial activity against wild type Staphylococcus aureus 4738/B assessed as reduction in microbial growth incubated for 24 hrs by microdilution assay. Format: functional.
In assay [22] the test system is Staphylococcus aureus. As to the kind of experiment: microbe, parasite or virus in culture. The note with it: 4880/C, 24 h.
Description: Antibacterial activity against wild type Staphylococcus aureus 4880/C assessed as reduction in microbial growth incubated for 24 hrs by microdilution assay
The subject of assay [23] is Staphylococcus aureus. Briefly: Antibacterial activity against antibiotic resistant Staphylococcus aureus 77/CF assessed as reduction in microbial growth incubated for 24 hrs by microdilution assay. Format: functional.
The subject of assay [24] is Staphylococcus aureus. As to the kind of experiment: Antibacterial activity against wild type Staphylococcus aureus 4515/A assessed as reduction in microbial growth incubated for 24 hrs by microdilution assay. Format: functional.
Assay [25] relates to Staphylococcus aureus. Briefly: Antibacterial activity against wild type Staphylococcus aureus 4561/A assessed as reduction in microbial growth incubated for 24 hrs by microdilution assay. Format: functional.
Assay [26] relates to Staphylococcus aureus. As to the kind of experiment: Antibacterial activity against antibiotic resistant Staphylococcus aureus 4679/B assessed as reduction in microbial growth incubated for 24 hrs by microdilution assay. Format: functional.
For assay [27], the system named is Staphylococcus aureus. Briefly: Antibacterial activity against antibiotic resistant Staphylococcus aureus 4504/A assessed as reduction in microbial growth incubated for 24 hrs by microdilution assay. Format: functional.
Assay [28] has as its system Staphylococcus aureus. Briefly: Antibacterial activity against wild type Staphylococcus aureus 4740/B assessed as reduction in microbial growth incubated for 24 hrs by microdilution assay. Format: functional.
The subject of assay [29] is Staphylococcus aureus. Briefly: Antibacterial activity against antibiotic resistant Staphylococcus aureus 4502/A assessed as reduction in microbial growth incubated for 24 hrs by microdilution assay. Format: functional.
For assay [30], the system named is Staphylococcus aureus. Briefly: Antibacterial activity against wild type Staphylococcus aureus 4968/C assessed as reduction in microbial growth incubated for 24 hrs by microdilution assay. Format: functional.

As to `CC[C@H]1OC(=O)[C@H](C)[C@@H](O[C@H]2C[C@@](C)(OC)[C@@H](O)[C@H](C)O2)[C@H](C)[C@@H](O[C@@H]2O[C@H](C)C[C@H](N(C)C)[C@H]2O)[C@](C)(O)C[C@@H](C)C(=O)[C@H](C)[C@@H](O)[C@]1(C)O` [ERYTHROMYCIN], the MIC in assay [1] stood at 0.25 µg/mL; in assay [2], 0.25 µg/mL; in [3], 0.25 µg/mL; in assay [4], 0.125 µg/mL; in assay [5], 0.125 µg/mL; in assay [6] it was 0.25 µg/mL. The MIC is 0.25 µg/mL in assay [7]; 0.25 µg/mL in [8]; 0.25 µg/mL in assay [9]; above 16 µg/mL in assay [10]; 0.25 µg/mL in assay [11]; 0.125 µg/mL in assay [12]. The MIC in assay [13] is 0.25 µg/mL; in assay [14] it was 0.25 µg/mL; in assay [15], 0.25 µg/mL (≈ 0.341 µM); in [16] it was above 4 µg/mL; in assay [17] it was above 16 µg/mL; in assay [18] it was above 16 µg/mL. Besides, the MIC was 0.25 µg/mL in [19]; 0.25 µg/mL in [20]; 0.25 µg/mL in assay [21]; 0.25 µg/mL (≈ 0.341 µM) in assay [22]; above 16 µg/mL in assay [23]; 0.25 µg/mL in assay [24].
In the case of GENTAMICIN, the MIC was 0.25 µg/mL in assay [1]; 1 µg/mL in assay [3]; 1 µg/mL in [4]; 0.25 µg/mL in [6]; 0.25 µg/mL in assay [7]; 0.25 µg/mL in [8]. Also, the MIC is 0.25 µg/mL in assay [11]; 0.25 µg/mL in [12]; 0.25 µg/mL in assay [13]; 0.25 µg/mL in assay [14]; 0.25 µg/mL in [25]; above 32 µg/mL in assay [26]. In addition, the MIC in assay [27] was above 32 µg/mL; in [19], 0.25 µg/mL; in assay [20], 0.25 µg/mL; in [21], 0.25 µg/mL; in assay [28], 0.25 µg/mL; in assay [29], above 32 µg/mL. Besides, the results for the MIC in [30], in assay [23] and in assay [24] were 0.25 µg/mL, above 32 µg/mL and 0.25 µg/mL, respectively.
